ChEMBL document CHEMBL2074496, “Altered drug disposition of the platelet activating factor antagonist apafant in mdr1a knockout mice” (Eur J Pharm Sci, 2002)

Key:
[1] = target: ATP-dependent translocase ABCB1 (Homo sapiens, UniProt P08183); assay: TP_TRANSPORTER: transepithelial transport (basal to apical) in Caco-2 cells; type: functional, cell-based
[2] = target: ATP-dependent translocase ABCB1 (Mus musculus, UniProt P21447); assay: TP_TRANSPORTER: increase in brain concentration in mdr1a(-/-) mouse; type: functional, organism-based; details: in vivo
Sequence of ATP-dependent translocase ABCB1 (Mus musculus, UniProt P21447) (P21447 whole entry): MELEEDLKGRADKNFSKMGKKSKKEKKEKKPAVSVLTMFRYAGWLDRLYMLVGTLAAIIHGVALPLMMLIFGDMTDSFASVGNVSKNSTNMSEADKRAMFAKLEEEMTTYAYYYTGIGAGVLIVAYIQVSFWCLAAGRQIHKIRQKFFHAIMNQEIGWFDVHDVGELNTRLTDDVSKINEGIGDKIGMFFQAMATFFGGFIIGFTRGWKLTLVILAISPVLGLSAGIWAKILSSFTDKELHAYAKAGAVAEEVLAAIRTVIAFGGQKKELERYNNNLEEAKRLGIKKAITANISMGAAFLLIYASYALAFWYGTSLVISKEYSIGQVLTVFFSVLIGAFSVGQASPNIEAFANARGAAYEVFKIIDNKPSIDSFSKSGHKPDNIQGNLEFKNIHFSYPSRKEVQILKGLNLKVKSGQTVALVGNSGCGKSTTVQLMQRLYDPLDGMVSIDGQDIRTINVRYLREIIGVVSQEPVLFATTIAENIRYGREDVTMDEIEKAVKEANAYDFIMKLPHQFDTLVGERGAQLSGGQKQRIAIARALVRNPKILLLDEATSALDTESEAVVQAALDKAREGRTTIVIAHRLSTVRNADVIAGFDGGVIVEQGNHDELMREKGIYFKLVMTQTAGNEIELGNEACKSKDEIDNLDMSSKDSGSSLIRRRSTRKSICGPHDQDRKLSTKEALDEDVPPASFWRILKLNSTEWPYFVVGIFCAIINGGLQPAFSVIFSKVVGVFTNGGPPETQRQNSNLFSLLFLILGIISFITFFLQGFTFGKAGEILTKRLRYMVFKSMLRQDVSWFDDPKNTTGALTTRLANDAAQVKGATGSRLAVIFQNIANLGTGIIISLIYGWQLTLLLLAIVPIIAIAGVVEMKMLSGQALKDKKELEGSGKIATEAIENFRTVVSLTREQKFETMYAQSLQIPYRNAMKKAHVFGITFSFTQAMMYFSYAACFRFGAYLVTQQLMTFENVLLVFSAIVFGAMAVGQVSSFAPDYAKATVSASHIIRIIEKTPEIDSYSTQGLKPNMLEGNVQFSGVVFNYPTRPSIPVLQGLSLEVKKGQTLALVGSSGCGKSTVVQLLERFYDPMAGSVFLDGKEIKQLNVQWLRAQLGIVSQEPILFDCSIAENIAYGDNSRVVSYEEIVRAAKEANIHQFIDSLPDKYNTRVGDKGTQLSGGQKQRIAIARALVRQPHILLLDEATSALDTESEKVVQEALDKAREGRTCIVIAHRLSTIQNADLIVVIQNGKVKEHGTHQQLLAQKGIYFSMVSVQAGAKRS

Sequence of ATP-dependent translocase ABCB1 (Homo sapiens, UniProt P08183) (P08183 whole entry): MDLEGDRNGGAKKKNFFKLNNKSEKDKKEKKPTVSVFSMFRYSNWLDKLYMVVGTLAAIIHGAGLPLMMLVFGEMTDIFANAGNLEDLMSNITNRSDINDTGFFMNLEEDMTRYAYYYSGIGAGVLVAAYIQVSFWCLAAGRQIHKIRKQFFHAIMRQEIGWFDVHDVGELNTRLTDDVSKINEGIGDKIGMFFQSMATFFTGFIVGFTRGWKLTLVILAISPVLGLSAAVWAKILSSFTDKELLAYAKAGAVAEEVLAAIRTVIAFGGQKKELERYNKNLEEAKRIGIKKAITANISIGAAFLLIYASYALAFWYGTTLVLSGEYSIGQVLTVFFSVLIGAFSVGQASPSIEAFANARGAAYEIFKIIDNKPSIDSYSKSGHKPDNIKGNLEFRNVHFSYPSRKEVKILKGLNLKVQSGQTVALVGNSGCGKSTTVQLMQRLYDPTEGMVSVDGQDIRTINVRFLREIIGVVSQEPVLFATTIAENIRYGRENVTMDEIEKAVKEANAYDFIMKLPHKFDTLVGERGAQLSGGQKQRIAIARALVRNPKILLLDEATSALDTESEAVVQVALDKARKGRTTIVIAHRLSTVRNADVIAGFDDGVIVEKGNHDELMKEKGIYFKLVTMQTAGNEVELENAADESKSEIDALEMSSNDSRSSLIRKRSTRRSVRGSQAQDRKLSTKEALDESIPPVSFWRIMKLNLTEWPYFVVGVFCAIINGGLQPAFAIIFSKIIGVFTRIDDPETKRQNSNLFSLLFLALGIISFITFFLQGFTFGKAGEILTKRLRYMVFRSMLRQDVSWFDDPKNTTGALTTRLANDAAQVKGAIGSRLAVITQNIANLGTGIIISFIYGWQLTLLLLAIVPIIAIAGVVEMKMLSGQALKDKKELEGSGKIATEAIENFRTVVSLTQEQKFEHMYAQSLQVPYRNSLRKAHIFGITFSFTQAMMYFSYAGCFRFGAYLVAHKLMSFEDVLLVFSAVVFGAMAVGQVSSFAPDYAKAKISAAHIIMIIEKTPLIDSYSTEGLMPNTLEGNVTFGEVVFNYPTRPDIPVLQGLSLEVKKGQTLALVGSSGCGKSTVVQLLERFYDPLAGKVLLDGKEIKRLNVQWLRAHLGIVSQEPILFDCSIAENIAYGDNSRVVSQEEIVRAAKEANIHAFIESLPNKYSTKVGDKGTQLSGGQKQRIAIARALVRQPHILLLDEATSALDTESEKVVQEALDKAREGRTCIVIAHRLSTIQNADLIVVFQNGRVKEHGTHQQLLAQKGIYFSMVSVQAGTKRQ

## Cc1nnc2n1-c1sc(CCC(=O)N3CCOCC3)cc1C(c1ccccc1Cl)=NC2 [APAFANT]
[1]
  Activity: substrate [+]
[2]
  Activity: substrate [+]
